Measurements published in US20070173535A1, “Oxadiazoles having antiproliferative activity” (priority 2002, published 2007).

Columns and labels:
Microcitoma = assay: NCI GI50 on tumor cells, microcitoma; format: cell-based, human; details: Microcitoma cell lines; NA = inactive products
Protocol: (§1) Biological assays were carried out at the National Cancer Institute according to known experimental protocols [(a) Monks A., Scudiero D., Skehan P., Shoemaker R., Paull K., Vistica D., Hose C., Langley J., Cronise P., Vaigro-Wolff A., Gray-Goodrich M., Campbell H., Mayo J., Boyd M., J. Natl. Cancer Inst., 83, 757-766 (1991). (b) Paull K. D., Shoemaker R. H., Hods L., Monks A., Scudiero D. A., Rubinstein L., Plowman J., Boyd M. R., J. Natl. Cancer Inst., 81, 1088-1092 (1989). (c) Boyd M. R., Paull K. D., Rubinstein L. R., Cytotoxic Anticancer Drugs: Models and Concept for Drug discovery, Valeriote F. A., Corbett T., Baker L., Eds., Kluwer Academic Publishers: Amsterdam, 1992, pp. 11].

Kidney = assay: NCI GI50 on tumor cells, kidney; format: cell-based, human; details: Kidney cell lines; NA = inactive products
Protocol: as §1

Breast = assay: NCI GI50 on tumor cells, breast; format: cell-based, human; details: Breast cell lines; NA = inactive products
Protocol: as §1

Colon = assay: NCI GI50 on tumor cells, colon; format: cell-based, human; details: Colon cell lines; NA = inactive products
Protocol: as §1

[1] = test system: MCF7 breast, NCI-H460 microcitoma and SF-268 SNC; assay: NCI preliminary tests on three cell lines, mean GI50; format: cell-based, human; details: mean concentration causing 50% inhibition of cell growth; N.A. = inactive in preliminary tests on three cell lines
Protocol: as §1
Table 1 reports the GI50, namely the mean concentration (μM) of substance which causes a 50% inhibition on the cell growth in preliminary tests carried out on three cell lines (MCF7 breast, NCI-H460 microcitoma and SF-268 SNC).

SNC = assay: NCI GI50 on tumor cells, SNC; format: cell-based, human; details: SNC cell lines; NA = inactive products
Protocol: as §1

Prostate = assay: NCI GI50 on tumor cells, prostate; format: cell-based, human; details: Prostate cell lines; NA = inactive products
Protocol: as §1

Ovary = assay: NCI GI50 on tumor cells, ovary; format: cell-based, human; details: Ovary cell lines; NA = inactive products
Protocol: as §1

[2] = test system: 60 human tumor cell lines; assay: NCI primary screening on 60 human tumor cell lines, mean over various tumor cells; format: cell-based; details: for antiproliferative activity: in words, in both cases (three-cell-line preliminary tests and various tumor cells); for GI50 Mean: mean over the tumor cell panels, NA = inactive products
Protocol: The cytotoxic activity of compounds (I) was evidenced in primary screening studies on 60 human tumor cell lines.
as §1

Melanoma = assay: NCI GI50 on tumor cells, melanoma; format: cell-based, human; details: Melanoma cell lines; NA = inactive products
Protocol: as §1

Leukemia = assay: NCI GI50 on tumor cells, leukemia; format: cell-based, human; details: Leukemia cell lines; NA = inactive products
Protocol: as §1

Compound | GI50 (Microcitoma) [µM] | GI50 (Kidney) [µM] | GI50 (Breast) [µM] | GI50 (Colon) [µM] | GI50 μM) Mean [1] [µM] | GI50 (SNC) [µM] | GI50 (Prostate) [µM] | GI50 (Ovary) [µM] | antiproliferative activity [2] | GI50 Mean [2] [µM] | GI50 (Melanoma) [µM] | GI50 (Leukemia) [µM]
c1ccc(-c2nnc(-c3c[nH]c4c3ccc3ccccc34)o2)cc1 [Il, 3-[[1,3,4]oxadiazole-5′-phenyl-2′-yl]-1H-benzo[g]indole] | 2.36 | 2.04 | 0.6 | 0.7 | 1.28 | 1.21 | 1.28 | 1.7 | significant antiproliferative activity | 1.28 | 2.71 | 0.64
c1ccc2c(c1)ccc1c(-c3nnco3)c[nH]c12 [Ih, 3-[[1,3,4]oxadiazol-2′-yl]-1H-benzo[g]indole] | 22.3 | 38 | 40 | 33.8 | 35.4 | 32.3 | 62.3 | 38.9 | – | 35.4 | 33.8 | 44.6
c1ccc(-c2nnc(-c3c[nH]c4c3Cc3ccccc3-4)o2)cc1 [Ic, 3-[[1,3,4]oxadiazole-5′-phenyl-2′-yl]-1,4-dihydro-indeno[1,2-b]pyrrole] | 3.39 | 6.31 | 3.16 | 1 | 2.9 | 2.95 | 4.78 | 4.57 | significant antiproliferative activity | 2.9 | 2.34 | 1.82
c1ccc2c(c1)Cc1c(-c3nnco3)c[nH]c1-2 [Ia, 3-[[1,3,4]Oxadiazol-2′-yl]-1,4-dihydro-indeno[1,2-b]pyrrole] | 57.8 | 67.3 | 73.2 | 81.2 | 74.1 | 86.7 | – | 81.2 | – | 74.1 | 77.3 | 79.7
c1ccc2c(c1)CCc1c(-c3nnco3)c[nH]c1-2 [Ie, 3-[[1,3,4]oxadiazol-2′-yl]-4,5-dihydro-1H-benzo[g]indole] | 21.8 | 27.5 | 27.5 | 25.7 | 26.6 | 28.2 | 32.3 | 28.2 | – | 26.3 | 28.8 | 26.3
Cc1nnc(-c2c[nH]c3c2Cc2ccccc2-3)o1 [Ib, 3-[[1,3,4]oxadiazole-5′-methyl-2′-yl]-1,4-dihydro-indeno[1,2-b]pyrrole] | 93.3 | 91.2 | 77.6 | – | 75.8 | 75.8 | – | 30.2 | – | 75.8 | 79.4 | 81.3
Cn1cc(-c2nnco2)c2ccc3ccccc3c21 [Im, 1-methyl-3-[[1,3,4]oxadiazol-2′-yl]-1H-benzo[g]indole] | 17.7 | 20.8 | 44.6 | 38.9 | 33.1 | 23.9 | 54.9 | 41.6 | – | 33.1 | 43.6 | 54.9
